From US5135910A, “Nisin compositions for use as enhanced, broad range bactericides” (The Public Health Research Institute of the City of New York, priority 1991, dated 1992)

Columns and labels:
Coryneform bacteria = experiment: bactericidal activity, percent survival, axillary Coryneform bacteria; format: cell-based; details: 20 mM Tris-HCl pH 8.0
Procedure: (§1) All tests in the following examples were performed at 37° C. The efficacy of the enhanced broad range bactericides was determined by assaying bactericidal activity as measured by the percent bacterial survival after treatment with the bactericide. Generally, after incubation of a 10^7 cell per ml suspension of target species with the novel bactericide for specified lengths of time, bacteria were collected by centrifugation for 2 minutes. […] Surviving bacteria were determined by scoring colony forming units (CFU) after incubation for 24-48 hours at 37° C. An effective bactericide according to this invention is one which allows less than 0.1% of the initial viable count of the bacteria to survive.
(§2) Incubations were performed in 20 mM TrisHCl, pH 8.0 at 37° C.

S. typhimurium = experiment: bactericidal activity, percent bacterial survival, S. typhimurium suspension; format: cell-based, Salmonella typhimurium; details: for Percentage S. typhimurium Survival at 3 hours: 20 mM Tris pH 8.0, 37° C.
Procedure: as §1, with “C.” for “C. An effective bactericide according to this invention is one which allows less than 0.1% of the initial viable count of the bacteria to survive.”
The control (Test #1) is identical to the control of Example 1 (Table 1).

E. coli = experiment: bactericidal activity, percent bacterial survival, E. coli suspension; format: cell-based, Escherichia coli; details: for Percentage E. coli Survival at 2 hours: 20 mM Tris pH 8.0, 37° C.
Procedure: as §1, with “C.” for “C. An effective bactericide according to this invention is one which allows less than 0.1% of the initial viable count of the bacteria to survive.”
The effects of the bactericide were measured as a function of percentage bacteria survival after 2 hours.
Incubations were performed in 20 mM Tris, pH 7.0 at 37° C.

Streptococcus mutans [1] = experiment: bactericidal activity, percent survival, Streptococcus mutans in Tris buffer; format: cell-based; details: for % Survival (S. mutans kinetics): nisin 0, 1.0 mM EDTA, Tris-HCl pH 7.3
Procedure: (§5) All tests in the following examples were performed at 37° C. The efficacy of the enhanced broad range bactericides was determined by assaying bactericidal activity as measured by the percent bacterial survival after treatment with the bactericide. Generally, after incubation of a 10^7 cell per ml suspension of target species with the novel bactericide for specified lengths of time, bacteria were collected by centrifugation for 2 minutes. The bacterial pellet was washed free of the bactericide with a rescue buffer, termed herein Phage buffer (50 mM Tris-HCl buffer pH 7.8, 1 mM MgSO4, 4 mM CaCl2, 0.1 M Nacl, and 0.1% gelatin), resuspended and serially diluted into Phage buffer, and 100 μl of the suspended bacteria were spread on nutrient agar plates. Surviving bacteria were determined by scoring colony forming units (CFU) after incubation for 24-48 hours at 37° C.
The suspensions were incubated for various times ranging from 0.5 to 60 minutes with the bactericides. The bactericidal efficacy of the bactericides was estimated by determining the percent survival of bacteria.
Incubations were performed in 20 mM TrisHCl, pH 7.3 at 37° C.

Listeria monocytogenes [2] = experiment: bactericidal activity, percent survival, Listeria monocytogenes in Tris buffer; format: cell-based; details: 20 mM Tris-HCl pH 8.0
Procedure: as §1, §2

Staphyloccus aureus = experiment: bactericidal activity, percent survival, Staphylococcus aureus; format: cell-based
Procedure: as §1
Incubations were performed in 50 mM sodium acetate buffer, pH 5.0 or 20 m
TrisHCl buffer, pH 8.0 at 37° C.

K. pneumoniae = experiment: bactericidal activity, percent bacterial survival, K. pneumoniae suspension; format: cell-based, Klebsiella pneumoniae; details: 20 mM Tris pH 8.0, 37° C.
Procedure: as §1, with “C.” for “C. An effective bactericide according to this invention is one which allows less than 0.1% of the initial viable count of the bacteria to survive.”
The effect was measured as a function of percentage bacterial survival after 2 hours.

[3] = system: S. typhimurium on chicken muscle; experiment: bactericidal activity towards S. typhimurium on chicken muscle (unadhered cells); format: cell-based, Salmonella typhimurium
Procedure: as §1
Incubations were performed in either 50 mM sodium acetate, pH 5.0, or 20 mM […], pH 8.0 at 37° C.
Cubes of chicken muscle were cleansed with sodium hypochlorite and povidone iodine prior to use. To inoculate the tissue, the cubes of chicken muscle were dipped into a 10^8 cells/ml suspension of S. typhimurium in 20 mM Tris HCl, pH 8.0. Excess moisture was removed from dipped cubes by tapping. The chicken samples were placed into sufficient buffer containing the nisin composition to cover the tissue and incubated for 2 hours at 37° C. after which the tissue was removed to sufficient Phage buffer to cover the tissue. The bacteria remaining in the test solution were collected by centrifugation, washed with Phage buffer, and combined with bacteria washed from the tissue by Phage buffer. The combined samples (termed "unadhered" cells) were serially diluted and 100μl aliquots were plated for determination of surviving bacteria.
(§3) Cubes of chicken muscle were cleansed with sodium hypochlorite and povidone iodine prior to use. To inoculate the tissue, the cubes of chicken muscle were dipped into a 10^8 cells/ml suspension of S. typhimurium in 20 mM Tris HCl, pH 8.0. Excess moisture was removed from dipped cubes by tapping. The tissue was placed into sufficient buffer containing the nisin compositions to cover the tissue, and incubated for 2 hours at 37° C. after which the tissue was removed to sufficient Phage buffer to cover the tissue. The bacteria remaining in the test solution were collected by centrifugation, washed with Phage buffer, and combined with bacteria washed from the tissue by Phage buffer. The combined samples (termed "unadhered" cells) were serially diluted and 100 μl aliquots were plated for determination of surviving bacteria.
as §3, with “cleaned” for “cleansed”, “with” for “with sodium”, “50” for “20”, “sodium acetate buffer,” for “Tris HCl,”, “5.0.” for “8.0.”, “containing” for “containing the”

Streptococcus agalactiae = experiment: bactericidal activity towards Streptococcus agalactiae in milk; format: cell-based
Procedure: as §1
However, the combination of the two agents, 0.1% monolaurin and nisin 0.2 μg/ml, is extremely potent towards S. agalactiae. […] Thus, when the application of nisin is limited by its available activity, a bactericide comprising nisin with a surfactant can be expected to be more useful.
(§4) Incubations were in milk at 37° C.

Listeria monocytogenes [4] = experiment: bactericidal activity towards Listeria monocytogenes in milk; format: cell-based
Procedure: as §1
An example of where the application of nisin is limited by its available activity is illustrated by the data in Table 15B.
as §4

Streptococcus mutans [5] = experiment: rapid bactericidal activity towards Streptococcus mutans in the presence of divalent cation, 10% fetal calf serum; format: cell-based; details: nisin 3, no EDTA, CaCl3 0 mM
Procedure: as §5
Incubations performed in 10% Fetal Calf Serum at 37° C.

## O=C([O-])CN(CCN(CC(=O)[O-])CC(=O)O)CC(=O)O.[Na+].[Na+] [EDTA]
Coryneform bacteria; nisin 0, EDTA 0.3 mM
  % Survival 2 hr (Coryneform bacteria): 4.6%
Coryneform bacteria; nisin 0, EDTA 1.0 mM
  % Survival 2 hr (Coryneform bacteria): 3.6%
Coryneform bacteria; nisin 0, EDTA 3.0 mM
  % Survival 2 hr (Coryneform bacteria): 8%
Coryneform bacteria; nisin 0, EDTA 10 mM
  % Survival 2 hr (Coryneform bacteria): 36%
S. typhimurium; nisin 0, EDTA 1.0 mM, BSA 1.0%, 20 mM Tris pH 8.0
  % Survival at 2 hours (S. typhimurium): 63%
S. typhimurium; nisin 0, EDTA 2.0 mM, 20 mM Tris pH 8.0
  % Survival at 2 hours (S. typhimurium): 8.7%
S. typhimurium; nisin 0, EDTA 2.0 mM, 50 mM sodium acetate pH 5.0
  % Survival at 2 hours (S. typhimurium): 38.7%
S. typhimurium; nisin 0, EDTA 10 mM, 20 mM Tris pH 8.0
  % Survival at 2 hours (S. typhimurium): 14%
S. typhimurium; nisin 0, EDTA 10 mM, 50 mM sodium acetate pH 5.0
  % Survival at 2 hours (S. typhimurium): 15.2%
S. typhimurium; nisin 0, EDTA 20 mM
  Percentage S. typhimurium Survival at 3 hours: 2.5%
S. typhimurium; nisin 0, EDTA 50 mM, 20 mM Tris pH 8.0
  % Survival at 2 hours (S. typhimurium): 11.4%
S. typhimurium; nisin 0, EDTA 50 mM, 50 mM sodium acetate pH 5.0
  % Survival at 2 hours (S. typhimurium): 3.5%
S. typhimurium; nisin 0, EDTA 100 mM, 20 mM Tris pH 8.0
  % Survival at 2 hours (S. typhimurium): 45%
E. coli; nisin 0, EDTA 1.0 mM, 20 mM Tris pH 7.0
  % survival at 1 min (E. coli): 100%
Streptococcus mutans [1]; incubation 3 min
  % Survival (S. mutans kinetics): 100%
Streptococcus mutans [1]; incubation 60 min
  % Survival (S. mutans kinetics): 100%
Listeria monocytogenes [2]; nisin 0, EDTA 1.0 mM
  % Survival after 2 hr (L. monocytogenes): 84%
Staphyloccus aureus; nisin 0, EDTA 0.3 mM, pH 8.0
  % Survival 2 hr (S. aureus): 100%
Staphyloccus aureus; nisin 0, EDTA 1.0 mM, pH 8.0
  % Survival 2 hr (S. aureus): 81%
Staphyloccus aureus; nisin 0, EDTA 3.0 mM, pH 5.0
  % Survival 2 hr (S. aureus): 100%
Staphyloccus aureus; nisin 0, EDTA 3.0 mM, pH 8.0
  % Survival 2 hr (S. aureus): 100%
Staphyloccus aureus; nisin 0, EDTA 10 mM, pH 8.0
  % Survival 2 hr (S. aureus): 100%
Staphyloccus aureus; nisin 0, EDTA 30 mM, pH 8.0
  % Survival 2 hr (S. aureus): 100%
K. pneumoniae; nisin 0, EDTA 20 mM
  % Survival at 2 hours (K. pneumoniae): 22%
[3]; nisin 0, EDTA 1.0 mM, BSA 1.0%, pH 8.0
  % Survival at 2 hours: 27%
[3]; nisin 0, EDTA 10 mM, pH 5.0
  % Survival at 2 hours, unadhered cells: 6.4%
[3]; nisin 0, EDTA 10 mM, pH 8.0
  % Survival at 2 hours, unadhered cells: 5.2%

## CCCCCCCCCCCC(=O)OCC(O)CO (stereo not drawn) [Monolaurin, monolaurin]
Streptococcus agalactiae; monolaurin at concentrations up to 0.1%
  bactericidal activity towards Streptococcus agalactiae: little significant bactericidal activity
Streptococcus agalactiae; nisin 0, monolaurin 0.01%, 37° C.
  % survival at 2 h (S. agalactiae): 100%
Streptococcus agalactiae; nisin 0, monolaurin 0.1%, 37° C.
  % survival at 2 h (S. agalactiae): 4.5%

## Triton X-100
E. coli; nisin 0, EDTA 0, Triton X-100 1.0%
  Percentage E. coli Survival at 2 hours: 100%
E. coli; tests #3 and #4, Table 4
  bactericidal activity towards E. coli: no significant bactericidal activity

## monooleate
Listeria monocytogenes [4]; monooleate by itself
  bactericidal activity towards L. monocytogenes: no bactericidal activity
Listeria monocytogenes [4]; nisin 0, monooleate 0.1%, 37° C.
  % Survival 2 hr (L. monocytogenes): 67%
Listeria monocytogenes [4]; nisin 0, monooleate 1.0%, 37° C.
  % Survival 2 hr (L. monocytogenes): 63%

## nisin
Coryneform bacteria; nisin 3 μg/ml, EDTA 0
  % Survival 2 hr (Coryneform bacteria): 0.22%
S. typhimurium; Table 8 test 1: nisin 10 μg/ml, EDTA 0, BSA 0
  % Survival at 2 hours (S. typhimurium): 51.3%
S. typhimurium; Table 8 test 1: nisin 100 μg/ml, EDTA 0, BSA 0
  % Survival at 2 hours (S. typhimurium): 1.6%
S. typhimurium; nisin 10 μg/ml, EDTA 0 mM
  Percentage S. typhimurium Survival at 3 hours: 51.3%
S. typhimurium; nisin 50 μg/ml, EDTA 0 mM
  Percentage S. typhimurium Survival at 3 hours: 7.0%
S. typhimurium; nisin 100 μg/ml, EDTA 0, 20 mM Tris pH 8.0 (Table 6)
  % Survival at 2 hours (S. typhimurium): 4%
S. typhimurium; nisin 100 μg/ml, EDTA 0, 50 mM sodium acetate pH 5.0
  % Survival at 2 hours (S. typhimurium): 0.6%
S. typhimurium; nisin 100 μg/ml, EDTA 0 mM
  Percentage S. typhimurium Survival at 3 hours: 1.6%
E. coli; nisin 30 μg/ml, EDTA 0, Triton X-100 0
  Percentage E. coli Survival at 2 hours: 27%
E. coli; nisin 100 μg/ml, EDTA 0, Triton X-100 0
  Percentage E. coli Survival at 2 hours: 25%
E. coli; nisin 300 μg/ml, EDTA 0, Triton X-100 0
  Percentage E. coli Survival at 2 hours: 8.5%
Streptococcus agalactiae; nisin 0.02 μg/ml, monolaurin 0, 37° C.
  % survival at 2 h (S. agalactiae): 100%
Streptococcus agalactiae; nisin 0.2 μg/ml, monolaurin 0, 37° C.
  % survival at 2 h (S. agalactiae): 2.2%
Streptococcus agalactiae; nisin at concentrations up to 0.2 μg/ml
  bactericidal activity towards Streptococcus agalactiae: does not exhibit significant bactericidal activity
Streptococcus mutans [1]; nisin 0.1 μg/ml, EDTA 0, 20 mM Tris-HCl pH 8.0
  % Survival after 2 hr (S. mutans): 4.3%
Listeria monocytogenes [2]; nisin 3.0 μg/ml, EDTA 0
  % Survival after 2 hr (L. monocytogenes): 0.71%
Streptococcus mutans [5]
  % survival at 1 min. (S. mutans): 2.9%
Staphyloccus aureus; nisin 3.0 μg/ml, EDTA 0, pH 5.0
  % Survival 2 hr (S. aureus): 0.6%
Staphyloccus aureus; nisin 3.0 μg/ml, EDTA 0, pH 8.0
  % Survival 2 hr (S. aureus): 7.4%
K. pneumoniae; nisin 100 μg/ml, EDTA 0
  % Survival at 2 hours (K. pneumoniae): 50%
K. pneumoniae; nisin 300 μg/ml, EDTA 0
  % Survival at 2 hours (K. pneumoniae): 38%
[3]; nisin 300 μg/ml, EDTA 0, pH 5.0
  % Survival at 2 hours, unadhered cells: 0.1%
[3]; nisin 300 μg/ml, EDTA 0, pH 8.0
  % Survival at 2 hours, unadhered cells: 7.5%
[3]; nisin 300 μg/ml, EDTA 0, pH 8.0, contains 1% BSA
  % Survival at 2 hours, unadhered cells: 0.02%
Listeria monocytogenes [4]; nisin 100 μg/ml, monooleate 0, 37° C.
  % Survival 2 hr (L. monocytogenes): 0.56%
